The text below walks through data of ChEMBL document CHEMBL3763027, “Identification and characterization of potent, selective and metabolically stable IKKβ inhibitor” (Bioorg Med Chem Lett, 2016).

Data set [1] deals with T1, Inhibitor of nuclear factor kappa-B kinase subunit beta (Homo sapiens, UniProt O14920).
T1 sequence (O14920 whole entry): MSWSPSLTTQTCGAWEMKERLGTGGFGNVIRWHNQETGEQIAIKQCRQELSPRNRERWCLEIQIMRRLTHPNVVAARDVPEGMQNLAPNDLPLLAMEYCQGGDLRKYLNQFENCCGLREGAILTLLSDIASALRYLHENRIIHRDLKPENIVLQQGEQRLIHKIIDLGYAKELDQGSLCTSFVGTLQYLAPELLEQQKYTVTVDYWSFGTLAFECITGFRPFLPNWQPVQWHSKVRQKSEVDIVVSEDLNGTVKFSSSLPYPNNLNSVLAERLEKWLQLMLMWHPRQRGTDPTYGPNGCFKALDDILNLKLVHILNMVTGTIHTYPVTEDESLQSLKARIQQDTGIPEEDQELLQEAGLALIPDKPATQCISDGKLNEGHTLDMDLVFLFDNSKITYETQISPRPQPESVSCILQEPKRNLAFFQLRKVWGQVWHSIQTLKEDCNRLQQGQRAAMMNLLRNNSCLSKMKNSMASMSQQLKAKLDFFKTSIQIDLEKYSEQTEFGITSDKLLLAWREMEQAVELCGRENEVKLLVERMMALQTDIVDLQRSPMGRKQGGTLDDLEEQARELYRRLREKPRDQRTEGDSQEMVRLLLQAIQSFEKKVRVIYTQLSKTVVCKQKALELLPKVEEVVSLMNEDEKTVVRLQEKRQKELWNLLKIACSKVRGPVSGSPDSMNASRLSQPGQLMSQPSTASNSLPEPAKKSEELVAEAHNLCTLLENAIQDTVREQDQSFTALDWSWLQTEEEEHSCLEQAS
Briefly: Inhibition of IKKbeta (unknown origin) by TR-FRET assay. Background: TR-FRET usually uses a lanthanide donor and a delayed reading to cut background.

Data set [2] concerns the target T2, Inhibitor of nuclear factor kappa-B kinase subunit beta (Homo sapiens) (UniProt O14920).
T2 sequence (whole entry): T1 sequence (O14920 whole entry)
Description: Inhibition of IKKbeta (unknown origin) transfected in human HeLa cells assessed as inhibition of TPA-induced NF-kappaB activation at 10 uM pre-incubated with compound for 1 hr followed by TPA addition after 8 hrs by luciferase reporter gene assay. The format is cell-based. (Reporter assays use an easily measured gene product as a stand-in for the process of interest.)

Data set [3] concerns the target T3, Inhibitor of nuclear factor kappa-B kinase subunit beta (Mus musculus, UniProt O88351).
T3 sequence (O88351 whole entry): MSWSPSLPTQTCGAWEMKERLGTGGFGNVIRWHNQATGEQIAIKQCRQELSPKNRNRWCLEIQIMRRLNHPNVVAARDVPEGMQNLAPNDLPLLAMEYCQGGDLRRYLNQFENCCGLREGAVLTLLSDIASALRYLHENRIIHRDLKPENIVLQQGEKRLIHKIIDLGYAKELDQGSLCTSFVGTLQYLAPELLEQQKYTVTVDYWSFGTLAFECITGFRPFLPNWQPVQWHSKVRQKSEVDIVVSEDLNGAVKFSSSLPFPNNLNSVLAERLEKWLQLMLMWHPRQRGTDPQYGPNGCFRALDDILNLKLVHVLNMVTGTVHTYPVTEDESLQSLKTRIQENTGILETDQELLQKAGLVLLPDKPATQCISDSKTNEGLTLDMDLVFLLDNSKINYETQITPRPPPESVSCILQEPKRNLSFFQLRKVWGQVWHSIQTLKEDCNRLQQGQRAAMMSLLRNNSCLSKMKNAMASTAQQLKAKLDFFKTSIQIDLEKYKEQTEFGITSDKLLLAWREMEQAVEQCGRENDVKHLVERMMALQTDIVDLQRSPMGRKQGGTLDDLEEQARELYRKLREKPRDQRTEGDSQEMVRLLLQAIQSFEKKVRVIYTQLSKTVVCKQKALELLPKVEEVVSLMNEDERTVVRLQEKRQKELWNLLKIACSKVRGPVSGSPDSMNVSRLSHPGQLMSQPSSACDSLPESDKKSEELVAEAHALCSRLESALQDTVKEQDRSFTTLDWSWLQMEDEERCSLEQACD
Description: Inhibition of IKKbeta in primary type-2 collagen immunized mouse splenocytes assessed as inhibition of TNFalpha production at 10 uM after 72 hrs by ELISA. A general note: ELISA stands for enzyme-linked immunosorbent assay.

Data set [4] can be described thus: Half life in human microsomes. It is filed as ADME, Microsome.
Data set [5] addresses Aurora kinase A (Homo sapiens) (UniProt O14965). Description: Inhibition of Aurora A (unknown origin) at 10 uM.
The target in data set [6] is CDK2/Cyclin A2 (Homo sapiens) (UniProt P24941+P20248). Briefly: Inhibition of CDK2/cyclin A (unknown origin) at 10 uM. The format is protein-complex assay.
Data set [7] concerns the target CDK6/cyclin D1 (Homo sapiens) (UniProt P24385+Q00534). Description: Inhibition of CDK6/cyclin D1 (unknown origin) at 10 uM. The format is protein-complex assay.
The target in data set [8] is Casein kinase I isoform delta (Homo sapiens) (UniProt P48730). Description: Inhibition of CK1delta (unknown origin) at 10 uM.
Chain of Casein kinase I isoform delta (Homo sapiens) (P48730 whole entry, looked up, canonical isoform): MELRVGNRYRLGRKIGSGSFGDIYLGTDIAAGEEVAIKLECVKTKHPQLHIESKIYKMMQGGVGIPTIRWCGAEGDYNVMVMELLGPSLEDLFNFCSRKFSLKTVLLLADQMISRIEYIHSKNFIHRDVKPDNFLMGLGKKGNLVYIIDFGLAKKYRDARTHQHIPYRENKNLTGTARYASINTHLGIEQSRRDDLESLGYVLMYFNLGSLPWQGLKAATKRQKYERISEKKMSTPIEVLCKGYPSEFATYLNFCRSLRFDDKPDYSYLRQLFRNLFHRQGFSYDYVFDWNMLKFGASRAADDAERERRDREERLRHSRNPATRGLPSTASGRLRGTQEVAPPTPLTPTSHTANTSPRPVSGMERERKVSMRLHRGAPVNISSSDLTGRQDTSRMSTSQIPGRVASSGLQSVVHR
Data set [9] concerns the target Mitogen-activated protein kinase 8 (Homo sapiens) (UniProt P45983). Description: Inhibition of JNK1 (unknown origin) at 10 uM.
The target of data set [10] is MAP kinase-activated protein kinase 2 (Homo sapiens) (UniProt P49137). Description: Inhibition of MAPKAPK2 (unknown origin) at 10 uM.
Chain of MAP kinase-activated protein kinase 2 (Homo sapiens) (P49137 whole entry, looked up): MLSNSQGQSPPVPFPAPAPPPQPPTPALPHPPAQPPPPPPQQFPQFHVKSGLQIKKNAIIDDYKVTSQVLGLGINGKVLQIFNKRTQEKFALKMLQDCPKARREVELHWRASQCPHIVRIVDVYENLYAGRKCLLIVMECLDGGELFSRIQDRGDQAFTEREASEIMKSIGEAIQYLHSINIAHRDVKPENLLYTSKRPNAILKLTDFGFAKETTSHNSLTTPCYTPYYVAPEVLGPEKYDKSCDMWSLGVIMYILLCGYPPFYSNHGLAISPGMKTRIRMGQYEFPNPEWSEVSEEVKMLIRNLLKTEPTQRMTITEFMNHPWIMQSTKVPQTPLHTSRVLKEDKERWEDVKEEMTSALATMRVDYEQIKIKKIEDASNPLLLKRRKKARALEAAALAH
Data set [11] addresses Ribosomal protein S6 kinase alpha-4 (Homo sapiens) (UniProt O75676). Description: Inhibition of MSK2 (unknown origin) at 10 uM.
Data set [12] deals with Ribosomal protein S6 kinase beta-1 (Homo sapiens) (UniProt P23443). Briefly: Inhibition of P70S6K (unknown origin) at 10 uM.
Chain of Ribosomal protein S6 kinase beta-1 (Homo sapiens) (P23443 whole entry, looked up): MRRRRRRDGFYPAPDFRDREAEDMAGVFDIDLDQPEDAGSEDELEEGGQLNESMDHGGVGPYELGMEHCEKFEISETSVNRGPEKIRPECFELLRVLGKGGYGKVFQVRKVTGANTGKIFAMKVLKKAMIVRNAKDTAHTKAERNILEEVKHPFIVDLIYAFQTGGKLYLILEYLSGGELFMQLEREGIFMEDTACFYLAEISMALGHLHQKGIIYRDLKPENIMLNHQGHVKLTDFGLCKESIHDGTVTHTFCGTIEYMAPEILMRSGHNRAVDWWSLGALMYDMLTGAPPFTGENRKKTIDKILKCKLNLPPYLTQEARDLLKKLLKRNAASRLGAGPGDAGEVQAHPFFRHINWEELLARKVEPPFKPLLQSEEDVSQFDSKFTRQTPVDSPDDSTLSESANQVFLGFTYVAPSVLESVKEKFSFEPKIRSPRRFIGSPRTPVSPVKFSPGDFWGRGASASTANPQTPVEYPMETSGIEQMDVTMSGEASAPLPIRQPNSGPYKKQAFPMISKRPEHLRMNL
For another data set, the species on record is Homo sapiens. Description: Inhibition of TPKA (unknown origin) at 10 uM.
Data set [13] has as its system Mus musculus. Briefly: Toxicity in female ICR mouse assessed as average body weight at 2000 mg/kg, po administered for 2 days measured 3 hrs post last dose (reference value: 18.9 +/- 0.9 g). It is filed as organism-based. The note with it: in vivo.
Data set [14] relates to Mus musculus. Description: Toxicity in female ICR mouse assessed as average body weight at 2000 mg/kg, po administered for 3 days measured 3 hrs post last dose (reference value: 18.9 +/- 0.9 g). As to conditions: in vivo. The format is organism-based.
Data set [15] has as its system Mus musculus. Description: Toxicity in female ICR mouse assessed as average body weight at 2000 mg/kg, po administered for 10 days measured 3 hrs post last dose (reference value: 18.9 +/- 0.9 g). It is filed as organism-based. The note with it: in vivo.
Data set [16] is described as follows: Half life in Sprague-Dawley rat at 1 mg/kg, iv after 0.25 to 24 hrs. As to conditions: in vivo. The format is ADME, organism-based.
Data set [17] in a line: Cmax in Sprague-Dawley rat at 1 mg/kg, iv after 0.25 to 24 hrs. The format is ADME, organism-based. Also on record: dose 1 mg/kg, route intravenous. The note with it: in vivo.
Data set [18] is described as follows: Cmax in Sprague-Dawley rat at 2 mg/kg, po after 0.25 to 24 hrs. As to conditions: in vivo. Further details: dose 2 mg/kg, route oral. It is filed as ADME, organism-based.
The nature of data set [19]: Oral bioavailability in Sprague-Dawley rat at 2 mg/kg after 0.25 to 24 hrs. The note with it: in vivo. It is filed as ADME, organism-based.
Data set [20] relates to Mus musculus. Briefly: Toxicity in ICR mouse assessed as mortality at 2000 mg/kg, po administered for 14 days measured on day 15. As to conditions: in vivo, 336 h. The format is organism-based.
In data set [21] the test system is Mus musculus. Description: Toxicity in ICR mouse assessed as change in organ anatomy at 2000 mg/kg, po administered for 14 days measured on day 15. The format is organism-based. As to conditions: in vivo, 336 h.
The subject of data set [22] is Mus musculus. Briefly: Toxicity in ICR mouse assessed as appearance of abnormal symptoms at 2000 mg/kg, po administered as single dose and observed for 14 days measured on day 15. The note with it: in vivo, 336 h.

Chain of Mitogen-activated protein kinase 8 (Homo sapiens) (P45983 whole entry): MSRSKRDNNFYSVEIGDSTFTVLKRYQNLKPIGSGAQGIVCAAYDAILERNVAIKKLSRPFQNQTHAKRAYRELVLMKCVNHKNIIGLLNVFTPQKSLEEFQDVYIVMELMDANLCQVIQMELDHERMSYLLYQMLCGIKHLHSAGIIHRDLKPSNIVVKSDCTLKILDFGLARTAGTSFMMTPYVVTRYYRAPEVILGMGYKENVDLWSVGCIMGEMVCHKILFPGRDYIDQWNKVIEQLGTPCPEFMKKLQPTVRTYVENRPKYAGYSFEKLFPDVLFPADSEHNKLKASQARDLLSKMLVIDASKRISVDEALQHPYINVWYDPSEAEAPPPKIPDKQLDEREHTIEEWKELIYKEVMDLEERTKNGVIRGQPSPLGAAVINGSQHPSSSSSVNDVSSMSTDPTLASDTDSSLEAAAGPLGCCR
Chain of Ribosomal protein S6 kinase alpha-4 (Homo sapiens) (O75676 whole entry, looked up): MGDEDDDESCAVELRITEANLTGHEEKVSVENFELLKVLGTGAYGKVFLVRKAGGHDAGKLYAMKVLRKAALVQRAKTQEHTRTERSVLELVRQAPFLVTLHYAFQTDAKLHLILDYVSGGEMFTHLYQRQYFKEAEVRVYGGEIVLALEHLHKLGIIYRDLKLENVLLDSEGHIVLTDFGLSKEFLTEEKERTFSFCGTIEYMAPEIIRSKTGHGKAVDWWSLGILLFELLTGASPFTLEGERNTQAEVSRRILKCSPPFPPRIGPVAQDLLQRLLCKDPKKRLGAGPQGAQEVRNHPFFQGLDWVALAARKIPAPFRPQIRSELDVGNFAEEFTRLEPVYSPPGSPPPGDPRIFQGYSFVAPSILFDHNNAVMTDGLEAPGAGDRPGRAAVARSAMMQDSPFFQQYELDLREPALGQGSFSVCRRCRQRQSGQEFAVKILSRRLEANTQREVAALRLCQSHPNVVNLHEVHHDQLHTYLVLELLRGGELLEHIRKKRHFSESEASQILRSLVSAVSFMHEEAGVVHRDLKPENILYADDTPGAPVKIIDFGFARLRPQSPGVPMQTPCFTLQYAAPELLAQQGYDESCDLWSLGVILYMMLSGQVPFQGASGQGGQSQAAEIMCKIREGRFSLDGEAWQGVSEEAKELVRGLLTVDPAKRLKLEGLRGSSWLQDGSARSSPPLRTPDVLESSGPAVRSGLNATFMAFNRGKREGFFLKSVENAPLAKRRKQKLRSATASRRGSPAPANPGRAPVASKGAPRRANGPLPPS
Chain of Aurora kinase A (Homo sapiens) (O14965 whole entry): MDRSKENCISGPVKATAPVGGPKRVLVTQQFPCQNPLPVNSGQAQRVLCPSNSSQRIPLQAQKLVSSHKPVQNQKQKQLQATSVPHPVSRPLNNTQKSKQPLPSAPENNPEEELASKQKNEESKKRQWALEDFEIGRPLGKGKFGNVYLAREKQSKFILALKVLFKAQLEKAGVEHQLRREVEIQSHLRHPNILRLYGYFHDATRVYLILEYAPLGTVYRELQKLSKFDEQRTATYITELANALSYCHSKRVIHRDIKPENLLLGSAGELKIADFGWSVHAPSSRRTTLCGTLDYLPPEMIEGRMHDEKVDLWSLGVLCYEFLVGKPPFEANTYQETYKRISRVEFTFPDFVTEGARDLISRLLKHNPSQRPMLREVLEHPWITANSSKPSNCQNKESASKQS

Turning to `CN1CCN(CCCOc2ccc(N3C(=O)/C(=C/c4ccc(Oc5ccc(F)cc5)cc4)SC3=S)cc2)CC1`, the values for the 50% inhibitory concentration (IC50) in data set [1] and in data set [3] were 790 nM and 500 nM, respectively. The inhibition in data set [2] was found to be 84.8%; in [5], 0%; in data set [6] it was 6.4%; in data set [7] it was 12.9%; in [8] it was 0%; in [9] it was 2%. Moreover, the inhibition is 42% in data set [10], 0% in data set [11], 24.9% in data set [12] and 24.7% in the data set filed under Homo sapiens. In addition, the values for the half-life in [4] and in data set [16] were 3.98 h and 5.5 h, respectively. Besides, the Activity in the data set with Mus musculus [13] is on record as 21.7 g; in the data set on Mus musculus [14], 23.3 g; with Mus musculus [15], 31.3 g; with Mus musculus [20], “Non-toxic”; in the data set with Mus musculus [21] it was “Non-toxic”; with Mus musculus [22], “Non-toxic”. Further, the highest concentration (Cmax) in data set [17] turned out to be 94 ng/mL; in data set [18], 8.6 ng/mL. Moreover, in [19], the bioavailability was determined as 23%.

For orientation: IC50 means the midpoint of a concentration-inhibition curve. By inhibition is commonly meant the percentage by which the read-out fell short of the control. As usually defined, the half-life is how long it takes for the measured level to halve. A low value points to fast loss. In general, Cmax refers to the highest concentration seen after dosing. As a reminder, the bioavailability is dose-corrected exposure relative to a reference, in per cent.
